Experimental data taken from patent US20150246074A1, “METHODS OF A[…] TOLERANCE” (The Board of Trustees of the University of Illinois, priority 2014, published 2015).

How the values were obtained:
Sprague-Dawley rats [1] = test: Withdrawal thresholds to mechanical stimulation (von Frey) in rats, MSC transplantation and daily morphine; assay type: in vivo, rat
Method: (§1) Animal care and use. The experimental protocols were approved by the Institutional Animal Care and Use Committee of Cleveland Clinic (IACUC #: 2010-0460). Experiments were performed on 24 male Sprague-Dawley rats (250-300 g), purchased from Harlan Laboratories (Indianapolis, Ind.). The animals were housed in group cages (2 per cage), allowed free access to food and water, and maintained on a 12/12 hour light/dark cycle.
(§2) Experimental design. Animals were habituated daily to the experimental environment for 1 week before testing. Pain sensitivity to mechanical or thermal stimuli applied to the hindpaws was determined by the thresholds of withdrawal of the hindlimbs from the stimuli. […] The effects of MSC transplantation or PBS injection on morphine-induced tolerance were evaluated every other day. […]
(§3) Stem cell transplantation. […] Immediately before transplantation, the cells were gently dissociated with 0.25% Trypsin, pelleted by centrifugation, counted by trypan blue exclusion, and suspended in 50 μl of PBS. […]
(§4) Behavioral tests. […] Withdrawal thresholds were quantified as the mechanical pressure in grams applied to the hindpaws through calibrated filaments (von Frey filaments) or the time interval in seconds between the activation of an infrared thermal stimulation and the withdrawal of the limb. […]

Sprague-Dawley rats [2] = test: Withdrawal thresholds to thermal stimulation (plantar test) in rats, MSC transplantation and daily morphine; assay type: in vivo, rat; settings: control group, Day 17 and thereafter, daily morphine, p<0.05
Method: as §1, §2, §3, §4

SH-SY5Y cells = test: cAMP accumulation assay in morphine-treated SH-SY5Y cells; assay type: cell-based, human; settings: for cAMP levels: 24 h, SH-SY5Y cells, control not treated with morphine = 100%
Method: Culture of SH-SY5Y Cells. SH-SY5Y cells, a well-established stable human neuroblastoma cell line, were purchased from American Type Culture Collection (ATCC, Manassas, Va.) and grown in Dulbecco's modified Eagle's medium (DMEM) with 10% fetal bovine serum, […] penicillin, and 100 μg/ml streptomycin at 37° C. in a 5% CO2 humidified incubator (Fisher). Before experiments, SH-SY5Y cells were treated with 10 μM retinoic acid (RA) for 6 days to induce neuronal differentiation. These differentiated SH-SY5Y cells were then treated with morphine (10 μM) for 24 h unless otherwise specified.
cAMP Accumulation Assay. Levels of cAMP, which is involved in a cellular mechanism of opioid tolerance development, were determined in morphine-treated SH-SY5Y cells. Thirty-six hours after co-culturing with hMSCs or HDFs, SH-SY5Y cells were harvested with a non-enzymatic cell dissociation solution and washed once with HBSS buffer. cAMP accumulation in SH-SY5Y cells was assayed using a LANCE™ cAMP kit (PerkinElmer, Waltham, Mass.) according to the manufacturer's protocol. SH-SY5Y cells were centrifuged at 1000 g for 2 min, resuspended at a concentration of 2×10^6 cells/ml in stimulation buffer (1×HBSS, 5 mM HEPES, 0.1% BSA, 0.5 mM IBMX, pH 7.4) and mixed with 50 μM forskolin. Alexa pluor® 647 labeled antibody was added to the cell suspension and the cells were incubated at 37° C. for additional 15 min, and detection mix was then added to the final cell suspension. The cell sample was further incubated for 1 h in the dark and read on a TECAN instrument (San Jose, Calif.) to measure the LANCE signal. The LANCE signal obtained at […] was directly used to analyze the cAMP levels. The signal at […] was used to identify dispensing or quenching problems. The cAMP standard curve was assayed according to the manufacturer's instructions. The cAMP formation was calculated as the percentage of forskolin-stimulated cAMP accumulation without morphine, which was defined as 100%. All data were expressed as mean±SD. Statistical comparisons were analyzed using Prism software. […]

## CN1CC[C@]23c4c5ccc(O)c4O[C@H]2[C@@H](O)C=C[C@H]3[C@H]1C5 [morphine]
Sprague-Dawley rats [1]; control (PBS) group, daily s.c. morphine 7.5 mg/kg, within five days
  withdrawal thresholds to mechanical stimulation (morphine tolerance): gradually and significantly reduced
Sprague-Dawley rats [1]; control group, Day 15, 4 days after start of daily morphine injections, t=15.639, p<0.001
  mean mechanical withdrawal thresholds vs pre-morphine value at day 11: dramatically decreased
Sprague-Dawley rats [2]
  withdrawal thresholds to thermal stimulation vs pre-morphine values at day 11: significantly reduced
SH-SY5Y cells; 1 μM morphine
  cAMP levels: 150.7±20.6 % of control
SH-SY5Y cells; 10 μM morphine
  cAMP levels: 241.6±19.6 % of control
SH-SY5Y cells; 10 μM morphine, at 24 and 48 h vs 0 h, p<0.001 (FIG. 2)
  cAMP levels over time: significant increase of cAMP
